Laboratory results reported in patent publication US8680113B2, “BMI-1 protein expression modulators” (PTC Therapeutics, Inc., priority 2008, dated 2014).

Tested on: Bmi-1
Assay: Sandwich ELISA Assay (Bmi-1 ELISA in HT-1080 cells)
Format: cell-based, human
In short: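 Lysate Bmi-1 was quantified against a recombinant GST-Bmi-1 standard (0-8000 pg/mL) by sandwich ELISA read at OD450 with OD570 reference. The ELISA used mouse monoclonal capture, rabbit anti-Bmi-1, HRP anti-rabbit IgG and TMB. Before lysis, HT-1080 cells seeded at 8000/well were exposed to compounds for 40-48 h at 37°C with 0.5% final DMSO.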

IC50, < 500 nM:
CCc1nc2ncccn2c1-c1csc(Nc2ccc(Br)cc2)n1 [Cpd 148, N-(4-bromophenyl)-4-(2-ethylimidazo[1,2-a]pyrimidin-3-yl)-1,3-thiazol-2-amine]
CCc1nc2ncccn2c1-c1csc(Nc2ccc(I)cc2)n1 [Cpd 149, 4-(2-ethylimidazo[1,2-a]pyrimidin-3-yl)-N-(4-iodophenyl)-1,3-thiazol-2-amine]
CCc1nc2ncccn2c1-c1csc(Nc2ccc(C(C)=O)cc2)n1 [Cpd 150, 1-(4-{[4-(2-ethylimidazo[1,2-a]pyrimidin-3-yl)-1,3-thiazol-2-yl]amino}phenyl)ethanone]
CCc1nc2ncccn2c1-c1csc(Nc2ccc3c(c2)OCO3)n1 [Cpd 151, N-(1,3-benzodioxol-5-yl)-4-(2-ethylimidazo[1,2-a]pyrimidin-3-yl)-1,3-thiazol-2-amine]
CCc1nc2ncccn2c1-c1csc(Nc2ccc(OC)c(F)c2)n1 [Cpd 152, 4-(2-ethylimidazo[1,2-a]pyrimidin-3-yl)-N-(3-fluoro-4-methoxyphenyl)-1,3-thiazol-2-amine]
CCc1nc2ncccn2c1-c1csc(Nc2ccc(OC)c(Cl)c2)n1 [Cpd 153, N-(3-chloro-4-methoxyphenyl)-4-(2-ethylimidazo[1,2-a]pyrimidin-3-yl)-1,3-thiazol-2-amine]
FC(F)(F)c1nc2ncccn2c1-c1csc(Nc2ccc3c(c2)OCO3)n1 [Cpd 154, N-(1,3-benzodioxol-5-yl)-4-[2-(trifluoromethyl)imidazo[1,2-a]pyrimidin-3-yl]-1,3-thiazol-2-amine]
COc1ccc(Nc2nc(-c3c(C)nc4ccc(F)cn34)cs2)cc1F [Cpd 155, N-(3-fluoro-4-methoxyphenyl)-4-(6-fluoro-2-methylimidazo[1,2-a]pyridin-3-yl)-1,3-thiazol-2-amine]
Cc1nc2ccc(F)cn2c1-c1csc(Nc2ccc(I)cc2)n1 [Cpd 156, 4-(6-fluoro-2-methylimidazo[1,2-a]pyridine-3-yl)-N-(4-iodophenyl)-1,3-thiazol-2-amine]
Cc1nc2ccc(F)cn2c1-c1csc(Nc2ccc(N(C)C)cc2)n1 [Cpd 157, N′-[4-(6-fluoro-2-methylimidazo[1,2-a]pyridin-3-yl)-1,3-thiazol-2-yl]-N,N-dimethylbenzene-1,4-diamine]
Cc1nc2ccc(F)cn2c1-c1csc(Nc2ccc3c(c2)OCO3)n1 [Cpd 158, N-(1,3-benzodioxol-5-yl)-4-(6-fluoro-2-methylimidazo[1,2-a]pyridin-3-yl)-1,3-thiazol-2-amine]
CC(=O)c1ccc(Nc2nc(-c3c(C)nc4ccc(F)cn34)cs2)cc1 [Cpd 159, 1-(4-{[4-(6-fluoro-2-methylimidazo[1,2-a]pyridin-3-yl)-1,3-thiazol-2-yl]amino}phenyl)ethanone]
COc1ccc(Nc2nc(-c3c(C)nc4ccc(F)cn34)cs2)cc1 [Cpd 160, 4-(6-fluoro-2-methylimidazo[1,2-a]pyridin-3-yl)-N-(4-methoxyphenyl)-1,3-thiazol-2-amine]
Cc1nc2ccc(F)cn2c1-c1csc(Nc2ccc(Cl)cc2)n1 [Cpd 161, N-(4-chlorophenyl)-4-(6-fluoro-2-methylimidazo[1,2-a]pyridin-3-yl)-1,3-thiazol-2-amine]
Cc1nc2ccc(F)cn2c1-c1csc(Nc2ccc(Br)cc2)n1 [Cpd 162, N-(4-bromophenyl)-4-(6-fluoro-2-methylimidazo[1,2-a]pyridin-3-yl)-1,3-thiazol-2-amine]
CCOc1ccc(Nc2nc(-c3c(C)nc4ccc(F)cn34)cs2)cc1 [Cpd 163, N-(4-ethoxyphenyl)-4-(6-fluoro-2-methylimidazo[1,2-a]pyridin-3-yl)-1,3-thiazol-2-amine]
